From US20100075343A1, “NOVEL PEPTIDES” (priority 2007, published 2010)
Ends that are not written are not given here.

Key:
[1] = biological target: antiserum against ESPGPERVW peptide of human VGF; type: binding; details: for inhibition of binding of the antiserum to labeled peptide: 1, 10, and 100 pmol of the peptides
Description: Namely, to 100 μL of antiserum diluted 9×10^5 folds with RIA buffer, 100 μL of RIA buffer containing a fixed amount of [^125I]-labeled Peptide 1 (approximately 20000 cpm, 500-550 Bq, approximately 9 fmol in terms of peptide amount) and 100 μL of RIA buffer solutions each containing a sequentially diluted VGF-derived peptide were added, this was incubated at 4° C. for 40 hours, and the labeled Peptide 1 and VGF-derived peptide were competitively bound to the antibody in the antiserum. As controls, reactions that use RIA buffer instead of the antiserum to measure non-specific binding, and reactions that use RIA buffer instead of VGF-derived peptide solutions to measure the maximum binding level were carried out. Reactions for non-specific binding were performed in quadruplicates, and the other reactions were performed in duplicates, and for each of the reactants, the immune complex was precipitated as in the above-mentioned antibody titer measurements, and its radioactivity (cpm) was measured. The average radioactivity of non-specific binding reaction is defined as non-specific binding level N, the radioactivity value for each VGF-derived peptide addition reaction is defined as Y, and the radioactivity value of maximum binding reaction is defined as Z. The percentage ratio (B/B0) of antiserum specific binding level (B) with peptide addition to the maximum binding level (B0), was determined using the following formula.
B/B0(%)={(Y−N)/(Z−N)}×100
Accordingly, the amount of peptide that achieves 50% B/B0, more specifically, the amount of peptide that yields 50% inhibition of the maximum binding level, was used as an indicator of the peptide binding activity to the antiserum.

[2] = tested on: medulla oblongata of apoaequorin-expressing mice; experiment: Intracellular calcium ion increase (aequorin luminescence), medulla oblongata; type: cell-based, mouse; details: peptide at final concentrations of 1 μmol/L and 5 μmol/L
Description: (§1) A hypothalamus, pituitary gland, kidney, heart, blood vessel, or a portion of brain tissue is collected from transgenic mice systemically expressing apoaequorin (WO02/010371) produced by introducing an apoaequorin gene expression vector into fertilized eggs. The obtained hypothalamus, pituitary gland, kidney, heart, blood vessel, or brain tissue is cut finely into pieces, suspended in a medium containing coelenterazine, and then incubated to incorporate coelenterazine into the cells to form aequorin (a complex of apoaequorin and coelenterazine). Since aequorin luminesces upon binding to intracellular calcium ions, the relative luminescence level in cells before and after addition of a medium containing the peptide or a pharmaceutically acceptable salt thereof is measured in a luminometer every second over time and is used as an indicator of intracellular calcium ion concentration. Increase in the relative luminescence level due to addition of the peptide or pharmaceutically acceptable salt thereof confirms that the peptide or pharmaceutically acceptable salt thereof has the activity to increase intracellular calcium ion concentration.
(§2) Whether Peptides 1 to 8 synthesized in Example 2 have the activity of increasing intracellular calcium ion concentration was investigated using the organs of transgenic mice introduced with the apoaequorin gene and systemically expressing apoaequorin (hereinafter referred to as apoaequorin-expressing mice). In apoaequorin-expressing mouse cells, light is emitted when apoaequorin binds to a calcium ion in the presence of the luminescent substrate coelenterazine and thus the intracellular calcium ion concentration can be monitored. Patent Document (WO02/010371) discloses the method for producing apoaequorin-expressing mice, method for evaluating biologically active substances that use biological samples derived from the mice, and experimental results of evaluating biologically active peptides using the mouse organs as shown below. […] Therefore, apoaequorin-expressing mice can be used in the evaluation of the physiological activities of novel peptides.
(§3) Apoaequorin-expressing mice were produced according to the method disclosed in Reference Example 4 of Patent Document (WO02/010371). The apoaequorin-expressing mice were sacrificed, individual organs including thymus, hypothalamus, spleen, bone, aorta, heart, kidney, adrenal gland, pancreas, pituitary gland, uterus, medulla oblongata, and spinal cord were removed; and each of the organs was cut into small cubes of approximately 1 to 2 mm^3. Next, in 5-mL tubes (Rohren-Tubes; manufactured by Sarstedt, No. 55.476), three portions of each of the prepared organs were added to 50 μL of a 10 μmol/L solution of coelenterazine (manufactured by Molecular Probes) dissolved in RPMI 1640 medium, and these were cultured at 37° C. for three hours. After culturing, RPMI 1640 medium was added, and then Peptides 1 to 5 dissolved in RPMI 1640 medium were added 25 seconds after the addition of RPMI 1640 until each peptide had final concentrations of 1 μmol/L and of 5 μmol/L, and the relative luminescence levels were measured every second immediately after the addition of RPMI 1640 medium by using a luminometer (AutoLumat LB953, manufactured by Berthold).

[3] = tested on: cardiac cells of the apoaequorin-expressing mice; experiment: Intracellular calcium ion increase (aequorin luminescence), heart; type: cell-based, mouse
Description: as §1, §2, §3

[4] = tested on: hypothalamic cells of the apoaequorin-expressing mice; experiment: Intracellular calcium ion increase (aequorin luminescence), hypothalamus; type: cell-based, mouse; details: for increase of intracellular calcium concentration in hypothalamic cells (RLU per second): added at 25 seconds; for luminescence (intracellular calcium ion increase) in hypothalamus: peptide at final concentrations of 1 μmol/L and 5 μmol/L
Description: as §1, §2, §3

[5] = tested on: pituitary cells of the apoaequorin-expressing mice; experiment: Intracellular calcium ion increase (aequorin luminescence), pituitary gland; type: cell-based, mouse; details: for increase of intracellular calcium concentration in pituitary cells (RLU per second): added at 25 seconds; for luminescence (intracellular calcium ion increase) in pituitary gland: peptide at final concentrations of 1 μmol/L and 5 μmol/L
Description: as §1, §2, §3

male rats = details: direct administration to the PVN of male rats; Non-patent Document 7; cited from earlier work
[6] = tested on: kidney cells of the apoaequorin-expressing mice; experiment: Intracellular calcium ion increase (aequorin luminescence), kidney; type: cell-based, mouse
Description: as §1, §2, §3

[7] = tested on: thymus of apoaequorin-expressing mice; experiment: Intracellular calcium ion increase (aequorin luminescence), thymus; type: cell-based, mouse; details: peptide at final concentrations of 1 μmol/L and 5 μmol/L
Description: as §1, §2
Apoaequorin-expressing mice were produced according to the method disclosed in Reference Example 4 of Patent Document (WO02/010371). […] After culturing, RPMI 1640 medium was added, and then Peptides 1 to 5 dissolved in RPMI 1640 medium were added 25 seconds after the addition of RPMI 1640 until each peptide had final concentrations of 1 μmol/L and of 5 μmol/L, and the relative luminescence levels were measured every second immediately after the addition of RPMI 1640 medium by using a luminometer (AutoLumat LB953, manufactured by Berthold).

[8] = 1 μmol/L peptide, added at 25 seconds
[9] = peptide at final concentrations of 1 μmol/L and 5 μmol/L

In the case of ESPGPERVW, the “amount of the peptide that yields 50% inhibition of the maximum binding level (B/B0 50%)” value ([1]; antiserum diluted 9×10^5 folds, [125I]-labeled peptide approximately 9 fmol) is reported as 9.0 fmol.
For corticotropin-releasing factor, the “inhibition of binding of the antiserum to labeled peptide” value (shortened to “inhibition of binding of the antiserum”) [1] was “none of these peptides showed inhibition”.
With glucagon the “inhibition of binding of the antiserum” value [1] was “none of these peptides showed inhibition”.
For “Peptide 2: amino acid sequence at position 195 to 206 in human VGF (VNLESPGPERVW; synthetic Peptide 2, VGF-related peptide, human VGF positions 195-206)”, the “luminescence (intracellular calcium ion increase) in medulla oblongata” value [2] was “luminescence was observed”, the “increase of intracellular calcium concentration in cardiac cells (RLU per second)” value [3, 8] was “increase of intracellular calcium concentration” and the “luminescence (intracellular calcium ion increase) in heart” value [3, 9] was “luminescence was observed”. The “increase of intracellular calcium concentration in hypothalamic cells (RLU per second)” value ([4]; 1 μmol/L peptide) was “increase of intracellular calcium concentration”, the “luminescence (intracellular calcium ion increase) in hypothalamus” value [4] was “luminescence was observed” and the “increase of intracellular calcium concentration in pituitary cells (RLU per second)” value ([5]; 1 μmol/L peptide) was “increase of intracellular calcium concentration”. For the same molecule, the “luminescence (intracellular calcium ion increase) in pituitary gland” value [5] was “luminescence was observed”.
With neuromedin U-8 the “inhibition of binding of the antiserum” value [1] was “none of these peptides showed inhibition”.
For “peptide HI: non-VGF peptide (HADGVFTSDYSRLLGQISAKKYLESLI; ends and bridges not checked; UniProt P01283 81-107, looked up)”, the “inhibition of binding of the antiserum” value [1] was “none of these peptides showed inhibition”.
With melanin-concentrating hormone the “inhibition of binding of the antiserum” value [1] was “none of these peptides showed inhibition”.
For “rat VGF (577-617): known partial peptide, positions 577-617 of rat VGF (HHPDLEAQARRAQEEADAEERRLQEQEELENYIEHVLLHRP; UniProt P20156 577-617, looked up, fragment)”, the erection inducing activity (male rats) is given as “showed an erection inducing activity”.
With “Peptide 3: amino acid sequence at position 485 to 495 in human VGF (NAPPEPVPPPR; synthetic Peptide 3, VGF-related peptide, human VGF positions 485-495)” the “luminescence (intracellular calcium ion increase) in medulla oblongata” value [2] was “luminescence was observed”, the “increase of intracellular calcium concentration in kidney cells (RLU per second)” value [6, 8] was “increase of intracellular calcium concentration” and the “luminescence (intracellular calcium ion increase) in kidney” value [6, 9] was “luminescence was observed”. The “increase of intracellular calcium concentration in hypothalamic cells (RLU per second)” value ([4]; 1 μmol/L peptide) was “increase of intracellular calcium concentration”, the “luminescence (intracellular calcium ion increase) in hypothalamus” value [4] was “luminescence was observed” and the “increase of intracellular calcium concentration in pituitary cells (RLU per second)” value ([5]; 5 μmol/L peptide) was “increase of intracellular calcium concentration”. The “luminescence (intracellular calcium ion increase) in pituitary gland” value [5] was “luminescence was observed” and the “luminescence (intracellular calcium ion increase) in thymus” value [7] was “luminescence was observed”.
With PAMP-20 the “inhibition of binding of the antiserum” value [1] was “none of these peptides showed inhibition”.
In the case of NC(=O)CC[C@@H]1NC(=O)[C@H](Cc2ccccc2)NC(=O)[C@H](Cc2ccc(O)cc2)NC(=O)[C@@H](N)CSSC[C@@H](C(=O)N2CCC[C@H]2C(=O)N[C@@H](CCCN=C(N)N)C(=O)NCC(N)=O)NC(=O)[C@H](CC(N)=O)NC1=O [vasopressin], the “inhibition of binding of the antiserum” value [1] is reported as “none of these peptides showed inhibition”.
For secretin, the “inhibition of binding of the antiserum” value [1] was “none of these peptides showed inhibition”.
For “rat VGF (599-617): known partial peptide, positions 599-617 of rat VGF (LQEQEELENYIEHVLLHRP; UniProt P20156 599-617, looked up, fragment)”, the erection inducing activity (male rats) is listed as “showed an erection inducing activity”.
In the case of melanocyte-stimulating hormone, the “inhibition of binding of the antiserum” value [1] is reported as “none of these peptides showed inhibition”.
With calcitonin the “inhibition of binding of the antiserum” value [1] was “none of these peptides showed inhibition”.
In the case of CC[C@H](C)[C@@H]1NC(=O)[C@H](CCCNC(=N)N)NC(=O)[C@H](CC(=O)O)NC(=O)[C@H](CCSC)NC(=O)[C@H](CCCNC(=N)N)NC(=O)CNC(=O)CNC(=O)[C@H](Cc2ccccc2)NC(=O)[C@@H](NC(=O)[C@H](CO)NC(=O)[C@H](CO)NC(=O)[C@H](CCCNC(=N)N)NC(=O)[C@H](CCCNC(=N)N)NC(=O)[C@H](CC(C)C)NC(=O)[C@@H](N)CO)CSSC[C@@H](C(=O)N[C@@H](CC(N)=O)C(=O)N[C@@H](CO)C(=O)N[C@@H](Cc2ccccc2)C(=O)N[C@@H](CCCNC(=N)N)C(=O)N[C@@H](Cc2ccc(O)cc2)C(=O)O)NC(=O)CNC(=O)[C@H](CC(C)C)NC(=O)CNC(=O)[C@H](CO)NC(=O)[C@H](CCC(N)=O)NC(=O)[C@H](C)NC(=O)CNC1=O [atrial natriuretic peptide], the “inhibition of binding of the antiserum” value [1] is reported as “none of these peptides showed inhibition”.
With “Peptide 9: amino acid sequence at position 554 to 577 in human VGF (TLQPPSALRRRHYHHALPPSRHYP; synthetic Peptide 9, VGF-related peptide, human VGF positions 554-577)” the “increase of intracellular calcium concentration in hypothalamic cells (RLU per second)” value ([4]; 5 μmol/L peptide) was “increase of intracellular calcium concentration”, the “luminescence (intracellular calcium ion increase) in hypothalamus” value [4] was “luminescence was observed” and the “increase of intracellular calcium concentration in pituitary cells (RLU per second)” value ([5]; 5 μmol/L peptide) was “increase of intracellular calcium concentration”. The “luminescence (intracellular calcium ion increase) in pituitary gland” value [5] was “luminescence was observed”.
In the case of adrenomedullin, the “inhibition of binding of the antiserum” value [1] is reported as “none of these peptides showed inhibition”.
In the case of Leu-enkephalin, the “inhibition of binding of the antiserum” value [1] is reported as “none of these peptides showed inhibition”.
With neuropeptide Y the “inhibition of binding of the antiserum” value [1] was “none of these peptides showed inhibition”.
In the case of “rat VGF (588-617): known partial peptide, positions 588-617 of rat VGF (AQEEADAEERRLQEQEELENYIEHVLLHRP; UniProt P20156 588-617, looked up, fragment)”, the erection inducing activity (male rats) is given as “showed an erection inducing activity”.
With calcitonin receptor-stimulating peptide the “inhibition of binding of the antiserum” value [1] was “none of these peptides showed inhibition”.
In the case of “Met-enkephalin-Arg-Gly-Leu (YGGFMRGL) [non-VGF peptide]”, the “inhibition of binding of the antiserum” value [1] is reported as “none of these peptides showed inhibition”.
